Test results as given in patent US7452865B2, “Antagonistic analogs of GH RH (2003)” (The Administrare's of the Tulane Educational Fund, priority 2004, dated 2008).
“And” between values parts separate entries of the source, which are not always exact repeats. Identical values can stand only once. Marks after values point to notes of the source that are not given here. Square brackets hold non-standard residues; d marks the D form. Peptide text beside a SMILES is read from it. * marks the point of attachment. Phe(4-Cl) = N[C@@H](Cc1ccc(Cl)cc1)C(=O)O; hArg = N=C(N)NCCCC[C@H](N)C(=O)O; Decanoyl = CCCCCCCCCC(=O)*; Nle = CCCC[C@H](N)C(=O)O; Abu = CC[C@H](N)C(=O)O; PhAc = O=C(Cc1ccccc1)*

Experiments:
[1] = test system: GH-RH receptor isoforms on membrane fractions of human PC-3 prostate tumors; format: binding
Excerpt: Ligand competition assays with ^125I-labeled GH-RH antagonist JV-1-42 were used to determine the binding affinities of GH-RH analogs to the GH-RH receptor isoforms on membrane fractions of human PC-3 prostate tumors. The methods used have been described in detail (Halmos G, Schally A V, Varga J L, Plonowski A, Rekasi Z, Czompoly T, Proc Natl Acad Sci USA 97: 10555-10560, 2000; Halmos G, Schally A V, Czompoly T, Krupa M, Varga J L, Rekasi Z, J Clin Endocrinol Metab 87: 4707-4714, 2002), hereby incorporated by reference. Briefly, radioiodinated derivatives of JV-142 are prepared by the chloramine-T method. PC-3 tumors, grown as xenografts in nude mice, are used to prepare crude membranes. PC-3 membrane homogenates are incubated with [^125I]JV-142 and increasing concentrations (10^−12 to 10^−6 M) of nonradioactive antagonist peptides as competitors. The pellet is separated by centrifugation and counted for radioactivity in a gamma-counter. The final binding affinities are estimated by K1 (dissociation constant of the inhibitor-receptor complex) and are determined by the Ligand PC and McPherson computer programs of Munson and Rodbard (P. J. Munson and D. Rodbard, Anal. Biochem. […]: 220-239, 1980). Relative affinities (R.A.) compared to reference peptides such as JV-1-36 or JV-1-38, are calculated as the ratio of K1 of the reference peptide to the K, of the tested GH-RH antagonist.

[2] = test system: hGH-RH(1-29)NH2 induced GH release; test: Inhibition of GH release in superfused rat pituitary system; format: cell-based; conditions: for endocrine antagonistic potency: inhibition of the GH release stimulated by hGH-RH(1-29)NH2 (in words): general statement, in vitro and in vivo
Method in brief: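 GH output was quantified by double-antibody RIA in superfusates of rat pituitary cells. Peptides were applied for 9 min at various concentrations before a 3-min 1 nM hGH-RH(1-29)NH2 pulse, with further pulses 30–120 min later; net integral responses given as percent of the original response.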

[3] = test system: PC-3 human prostate cancer xenografts; test: PC-3 xenografts in nude mice, Experiment 3: tumor growth; format: in vivo
Procedure: Male nude mice were implanted s.c. with 3 mm^3 pieces of PC-3 human hormone-independent prostate cancer tissue on both flanks. When tumors reached a volume of approximately 65 mm^3, the mice were divided into 7 experimental groups with 8 to 9 animals in each group and received single daily injections for 28 days as follows: 1. Control (vehicle solution); 2. JV-1-38 (10 μg/day s.c.); 3. Peptide 35 (10 μg/day s.c.); 4. Peptide 36 (10 μg/day s.c.); 5. Peptide 37 (10 μd/day s.c.); 6. Peptide 39 (10 μg/day s.c.); 7. Peptide 41 (10 μg/day s.c.). Tumor volumes were measured twice a week. The experiment was ended on day 28 by sacrificing the mice under Isofurane anesthesia. Resulting tumors were cleaned, weighed, and snapfrozen until further analyses. Trunk blood was collected from the abdominal aorta and serum was separated for RIA measurement of IGF-I. Statistical analyses of the measurement results were done by ANOVA followed by Fisher test; data are presented as the means±S.E.

[4] = antagonist 30 nM, 1 nM hGH-RH(1-29)NH2 at 0 min
[5] = antagonist 30 nM, 1 nM hGH-RH(1-29)NH2 at 30 min
[6] = antagonist 30 nM, 1 nM hGH-RH(1-29)NH2 at 60 min
[7] = antagonist 30 nM, 1 nM hGH-RH(1-29)NH2 at 90 min
[8] = antagonist 30 nM, 1 nM hGH-RH(1-29)NH2 at 120 min
[9] = 10 μg/day s.c., 28 days, vs control

Compound | Relative Affinities (R.A.) to membrane receptors on PC-3 human prostate cancers [1] | GH response (% of control) 0 min [2, 4] | GH response (% of control) 30 min [2, 5] | GH response (% of control) 60 min [2, 6] | GH response (% of control) 90 min [2, 7] | GH response (% of control) 120 min [2, 8] | binding affinities to the tumoral receptors for GH-RH (in words) ([1]; general statement) | Tumor volume (mm^3) Final ([3]; 10 μg/day s.c., 28 days) | Tumor volume doubling time ([3]; 10 μg/day s.c., 28 days) [days] | Tumor weight ([3]; 10 μg/day s.c., 28 days) [mg] | Tumor volume Final (% inhibition) [3, 9] | Tumor weight (% inhibition) [3, 9] | Tumor volume (mm^3) Initial ([3]; at start of treatment) [mm^3] | endocrine antagonistic potency: inhibition of the GH release stimulated by hGH-RH(1-29)NH2 (in words) [2] | GH response (% of control) 0 min ([2]; antagonist 10 nM, 0 min) | GH response (% of control) 30 min ([2]; antagonist 10 nM, 30 min) | GH response (% of control) 60 min ([2]; antagonist 10 nM, 60 min) | GH response (% of control) 90 min ([2]; antagonist 10 nM, 90 min) | GH response (% of control) 120 min ([2]; antagonist 10 nM, 120 min)
CCCCCCCCCC(=O)N[C@@H](Cc1ccc(O)cc1)C(=O)N[C@H](CCCNC(=N)N)C(=O)N[C@@H](CC(=O)O)C(=O)N[C@@H](C)C(=O)N[C@H](C(=O)N[C@@H](Cc1ccc(Cl)cc1)C(=O)N[C@H](C(=O)N[C@@H](CC(N)=O)C(=O)N[C@@H](CCCNC(=N)N)C(=O)N[C@@H](Cc1ccc(O)cc1)C(=O)N[C@@H](CCCNC(=N)N)C(=O)N[C@@H](CCCCN)C(=O)N[C@H](C(=O)N[C@@H](CC(C)C)C(=O)N[C@@H](CC)C(=O)N[C@@H](CCC(N)=O)C(=O)N[C@@H](CC(C)C)C(=O)N[C@@H](CO)C(=O)N[C@@H](C)C(=O)N[C@@H](CCCNC(=N)N)C(=O)N[C@@H](CCCCN)C(=O)N[C@@H](CC(C)C)C(=O)N[C@@H](CC(C)C)C(=O)N[C@@H](CCC(N)=O)C(=O)N[C@@H](CC(=O)O)C(=O)N[C@H](C(=O)N[C@@H](CCCC)C(=O)N[C@H](CCCNC(=N)N)C(=O)N[C@@H](CCCCNC(=N)N)C(N)=O)[C@@H](C)CC)C(C)C)[C@@H](C)O)[C@@H](C)CC [Peptide 6, [CH3(CH2)8CO-Tyr^1, D-Arg^2, Phe(pCl)^6, Arg^9, Abu^15, Nle^27, D-Arg^28, Har^29]hGH-RH(1-29)NH2] (Decanoyl-Y[dR]DAI[Phe(4-Cl)]TNRYRKVL[Abu]QLSARKLLQDI[Nle][dR][hArg]-NH2) | 0.6 | 56 % of control | 22 % of control | 12 % of control | 15 % of control | 19 % of control | – | – | – | – | – | – | – | – | – | – | – | – | –
[CH3(CH2)6CO-Tyr^1, D-Arg^2, Phe(pCl)^6, Ala^8, His^9, Tyr(Et)^10, His^11, Abu^15, Nle^27, D-Arg^28, Har^29]hGH-RH(1-29)NHEt [Peptide 97] | – | – | – | – | – | – | extremely high binding affinities | – | – | – | – | – | – | – | – | – | – | – | –
[PhAc-Tyr^1, D-Arg^2, Phe(pCl)^6, Har^9, Phe(pNH2)^10, Abu^15, Nle^27, D-Arg^28, Har^29]hGH-RH(1-29)NH2 [Peptide 37] | – | 33 % of control | 12 % of control | 15 % of control | 15 % of control | 19 % of control | – | 323 ± 68.0* mm^3 | 12.7 ± 2.03 | 440 ± 104 | (57%) | (37%) | 60.0 ± 13.0 | high endocrine antagonistic potencies | – | – | – | – | –
[PhAc-Tyr^1, D-Arg^2, Phe(pCl)^6, Arg^9, Amp^10, Abu^15, Nle^27, D-Arg^28, Har^29]hGH-RH(1-29)NH2 [Peptide 30] | – | 18 % of control | 11 % of control | 7 % of control | 7 % of control | 8 % of control | – | – | – | – | – | – | – | high endocrine antagonistic potencies | 60 % of control | 24 % of control | 34 % of control | 32 % of control | 53 % of control
CCCC[C@H](NC(=O)[C@@H](NC(=O)[C@H](CC(=O)O)NC(=O)[C@H](CCC(N)=O)NC(=O)[C@H](CC(C)C)NC(=O)[C@H](CC(C)C)NC(=O)[C@H](CCCCN)NC(=O)[C@H](CCCNC(=N)N)NC(=O)[C@H](C)NC(=O)[C@H](CO)NC(=O)[C@H](CC(C)C)NC(=O)[C@H](CCC(N)=O)NC(=O)[C@H](CC)NC(=O)[C@H](CC(C)C)NC(=O)[C@@H](NC(=O)[C@H](CCCCN)NC(=O)[C@H](CCCNC(=N)N)NC(=O)[C@H](Cc1ccc(O)cc1)NC(=O)[C@H](CCCNC(=N)N)NC(=O)[C@H](CC(N)=O)NC(=O)[C@@H](NC(=O)[C@H](Cc1ccc(Cl)cc1)NC(=O)[C@@H](NC(=O)[C@H](C)NC(=O)[C@H](CC(=O)O)NC(=O)[C@@H](CCCNC(=N)N)NC(=O)[C@H](Cc1ccc(O)cc1)NC(=O)Cc1ccccc1)[C@@H](C)CC)[C@@H](C)O)C(C)C)[C@@H](C)CC)C(=O)N[C@H](CCCNC(=N)N)C(=O)N[C@@H](CCCCNC(=N)N)C(N)=O [JV-1-36, reference compound] (PhAc-Y[dR]DAI[Phe(4-Cl)]TNRYRKVL[Abu]QLSARKLLQDI[Nle][dR][hArg]-NH2; N-terminus and C-terminus assumed) | – | 36 % of control | 21 % of control | 25 % of control | 29 % of control | 29 % of control | – | – | – | – | – | – | – | – | 80 % of control | 42 % of control | 60 % of control | 64 % of control | 85 % of control
[PhAc-Tyr^1, D-Arg^2, Phe(pCl)^6, Har^9, Tyr(Me)^10, Abu^15, Nle^27, D-Arg^28, Har^29, Agm^30]hGH-RH(1-30) [Peptide 60] | – | 73 % of control and 87 % of control | 27 % of control and 29 % of control | 34 % of control and 65 % of control | 56 % of control and 36 % of control | 42 % of control and 63 % of control | – | – | – | – | – | – | – | – | – | – | – | – | –
[PhAc-Tyr^1, D-Arg^2, Phe(pCl)^6, Har^9, Tyr(Me)^10, Amp^11, Abu^15, Nle^27, D-Arg^28, Har^29]hGH-RH(1-29)NH2 [Peptide 64] | – | 59 % of control | 54 % of control | 70 % of control | 50 % of control | 56 % of control | – | – | – | – | – | – | – | – | – | – | – | – | –
[Ipa-Tyr^1, D-Arg^2, Phe(pCl)^6, Har^9, Tyr(Me)^10, Abu^15, Nle^27, D-Arg^28, Har^29, Har^30]hGH-RH(1-30)NH2 [Peptide 55] | – | 93 % of control | 63 % of control | 96 % of control | 61 % of control | 93 % of control | – | – | – | – | – | – | – | – | – | – | – | – | –
[Hca-Tyr^1, D-Arg^2, Phe(pCl)^6, Har^9, Tyr(Me)^10, Abu^15, Nle^27, D-Arg^28, Har^29, D-Arg^30]hGH-RH(1-29)NH2 [Peptide 58] | – | 78 % of control and 94 % of control and 64 % of control | 53 % of control and 41 % of control | 56 % of control and 57 % of control and 59 % of control | 47 % of control and 64 % of control and 50 % of control | 64 % of control and 69 % of control | – | – | – | – | – | – | – | – | – | – | – | – | –
